Data as given in patent publication US20230123601A1, “PHARMACEUTICAL COMBINATION OF ANTIVIRAL AGENTS TARGETING HBV AND/OR AN IMMUNE MODULATOR FOR TREATMENT OF HBV” (priority 2019, published 2023).

Test system: HBV
Assay: HBV-DNA levels in serum of AAV/HBV mice (qPCR)
Assay type: in vivo, C57BL/6 mice
Parameters: HBV-DNA levels in serum: unit not given here
From the text: The AAV-HBV mouse model is generated by injecting C57BL/6 mice with recombinant adeno-associated virus harboring a replicable HBV genome (AAV-HBV). The rAAV8-1.3 HBV ayw virus stock was purchased from Beijing FivePlus Molecular Medicine Institute (Beijing, China). The animals (male, aged 4-5 weeks upon arrival) were purchased from SLAC Laboratory Animal Co. Ltd (Shanghai, China), acclimatized in the animal facility for 5-7 days, and then injected with 1×10^11 vector genome of AAV-HBV (diluted in 200 μL of PBS) through the tail vein. Persistence expression of HBV genome can be established after three weeks, with high levels of HBV viral markers including HBV DNA, HBsAg, and HBeAg in mouse serum. With stable HBV viremia and competent immune system of the C57BL/6 mice, the AAV-HBV mouse model was used to evaluate the in vivo anti-HBV efficacy of the compounds. The in-life part of the AAV-HBV study was conducted through contracted service at Covance Pharmaceutical Research and Development (Shanghai) Co. Ltd. (Covance Shanghai) and the post-life analysis using the serum was performed internally at Roche Innovation Center Shanghai (RICS).
Seven days before compound treatment, blood samples were collected for serum preparation (˜15 μL), and based on HBV DNA, HBsAg levels in serum and body weight, the AAV-HBV infected animals were stratified into the different treatment groups.
Saline (Group 01) and anti-HBV ASO of CMP ID NO: 15_1 at 1.5 or 7.5 mg/kg were dosed sub subcutaneously once a week during Day 0-49 on Days 0, 7, 14, 21, 28, 35, 42 and 49. TLR7 agonist of CMP ID NO: VI 100 mg/kg was administered by oral gavage once every other day during Day 0-55 (QOD) or once weekly during Day 0-49 on Days 0, 7, 14, 21, 28, 35, 42 and 49 (QW). The animals were weekly bled via retro-orbital sinus for sample collection throughout the study.
Initially mice serum was diluted by a factor of 10 (1:10) with Phosphate buffered saline (PBS). DNA was extracted using the MagNA Pure 96 (Roche) robot. 50 μl of the diluted serum was mixed in a processing cartridge with 200 ul MagNA Pure 96 external lysis buffer (Roche, Cat. no. 06374913001) and incubated for 10 minutes. DNA was then extracted using the “MagNA Pure 96 DNA and Viral Nucleic Acid Small Volume Kit” (Roche, Cat. no. 06543588001) and the “Viral NA Plasma SV external lysis 2.0” protocol. DNA elution volume was 50 μl.
Quantification of extracted HBV DNA was performed using a Taqman qPCR machine (ViiA7, life technologies). Each DNA sample was tested in duplicate in the PCR. 5 μl of DNA sample was added to 15 μl of PCR mastermix containing 10 μl TaqMan Gene Expression Master Mix (Applied Biosystems, Cat. no. 4369016), 0.5 μl PrimeTime XL qPCR Primer/Probe (IDT) and 4.5 μl distilled water in a 384 well plate and the PCR was performed using the following settings: UDG Incubation (2 min, 50° C.), Enzyme Activation (10 min, 95° C.) and PCR (40 cycles with 15 sec, 95° for Denaturing and 1 min, 60° C. for annealing and extension). DNA copy numbers were calculated from Ct values based on a HBV plasmid DNA standard curve by the ViiA7 software.
To evaluate the combination of the anti-HBV ASO and the TLR7 agonist in an in vivo system, a mouse model of chronic HBV infection was used. In the AAV/HBV mouse model described in the Materials and Method a persistent HBV infection is established resulting in expression of viral markers (HBsAg, HBeAg, HBV DNA) detectable in plasma. The effect on these viral markers upon treatment with the anti-HBV ASO of CMP ID NO: 15_1 (table 2, and FIG. 4) dosed at 1.5 mg/kg or 7.5 mg/kg and the TLR7 agonist of CMP ID NO: VI (table 3) dosed with […] every other day (QOD) or once weekly (QW) in monotherapy or in combination has been evaluated.

CC[C@H](OC(C)=O)[C@@H]1C[C@@H](O)[C@H](n2c(=O)sc3cnc(N)nc32)O1 [CMP ID NO: VI, [(1S)-1-[(2S,4R,5R)-5-(5-amino-2-oxo-thiazolo[4,5-d]pyrimidin-3-yl)-4-hydroxy-tetrahydrofuran-2-yl]propyl] acetate]
HBV-DNA levels in serum (TLR7 100 mg/kg QOD, D0): 7.69 ± 0.19
HBV-DNA levels in serum (TLR7 100 mg/kg QOD, D7): 5.74 ± 0.62
HBV-DNA levels in serum (TLR7 100 mg/kg QOD, D14, 100 mg/kg): 5.73 ± 1.2
HBV-DNA levels in serum (TLR7 100 mg/kg QOD, D21): 5.55 ± 0.32
HBV-DNA levels in serum (TLR7 100 mg/kg QOD, D28): 5.23 ± 1.02
HBV-DNA levels in serum (TLR7 100 mg/kg QOD, D35): 4.69 ± 0.71
HBV-DNA levels in serum (TLR7 100 mg/kg QOD, D42): 4.72 ± 0.76
HBV-DNA levels in serum (TLR7 100 mg/kg QOD, D49, 100 mg/kg): 4.5 ± 0.55
HBV-DNA levels in serum (TLR7 100 mg/kg QOD, D56): 4.59 ± 0.65
HBV-DNA levels in serum (TLR7 100 mg/kg QOD, D63, 100 mg/kg): 5.3 ± 1.21
HBV-DNA levels in serum (TLR7 100 mg/kg QOD, D70): 5.95 ± 1.17
HBV-DNA levels in serum (TLR7 100 mg/kg QOD, D77): 6.01 ± 1.17
HBV-DNA levels in serum (TLR7 100 mg/kg QOD, D84): 6.26 ± 1.08
HBV-DNA levels in serum (TLR7 100 mg/kg QOD, D91): 5.81 ± 1.09
HBV-DNA levels in serum (TLR7 100 mg/kg QOD, D98): 6.02 ± 1.17
HBV-DNA levels in serum (TLR7 100 mg/kg QOD, D105): 6.23 ± 1.29
HBV-DNA levels in serum (TLR7 100 mg/kg QOD, D111): 6.77 ± 0.64
HBV-DNA levels in serum (TLR7 100 mg/kg QW, D0, 100 mg/kg): 7.68 ± 0.2
HBV-DNA levels in serum (TLR7 100 mg/kg QW, D7): 7.15 ± 0.67
HBV-DNA levels in serum (TLR7 100 mg/kg QW, D14): 7.14 ± 0.47
HBV-DNA levels in serum (TLR7 100 mg/kg QW, D21): 6.65 ± 0.75
HBV-DNA levels in serum (TLR7 100 mg/kg QW, D28, 100 mg/kg): 6.1 ± 1.25
HBV-DNA levels in serum (TLR7 100 mg/kg QW, D35): 6.61 ± 0.98
HBV-DNA levels in serum (TLR7 100 mg/kg QW, D42, 100 mg/kg): 6.4 ± 0.84
HBV-DNA levels in serum (TLR7 100 mg/kg QW, D49): 6.27 ± 0.89
HBV-DNA levels in serum (TLR7 100 mg/kg QW, D56): 6.74 ± 0.64
HBV-DNA levels in serum (TLR7 100 mg/kg QW, D63, 100 mg/kg): 6.72 ± 0.7
HBV-DNA levels in serum (TLR7 100 mg/kg QW, D70, 100 mg/kg): 6.8 ± 0.64
HBV-DNA levels in serum (TLR7 100 mg/kg QW, D77): 6.95 ± 0.53
HBV-DNA levels in serum (TLR7 100 mg/kg QW, D84): 6.87 ± 0.49
HBV-DNA levels in serum (TLR7 100 mg/kg QW, D91): 6.59 ± 0.52
HBV-DNA levels in serum (TLR7 100 mg/kg QW, D98, 100 mg/kg): 6.7 ± 0.4
HBV-DNA levels in serum (TLR7 100 mg/kg QW, D105): 6.93 ± 0.43
HBV-DNA levels in serum (TLR7 100 mg/kg QW, D111): 7.07 ± 0.45
HBV DNA rebound, distance to control group (TLR7 agonist QOD or QW monotherapy, follow-up period): ≤ 1 log
reduction of HBV-DNA (TLR7 agonist alone): only reached the LLOQ when dosed every other day (QOD)
timing of HBV DNA rebound (TLR7 agonist monotherapy): occurred sooner after the end of treatment than it did in the anti-HBV ASO treated groups
maximal reduction of HBV-DNA (TLR7 agonist monotherapy, QW dosing): around 1.5 log
